The results in this text go back to US10981917B2, “Heterocyclic compound, its preparation method, and pharmaceutical composition comprising the same” (Daewoong Pharmaceutical Co., Ltd., priority 2017, dated 2021).

Molecules are shown by their SMILES.

Sequence of PRS (prolyl-tRNA synthetase) protein, PRS portion of EPRS (P07814 1007-1512): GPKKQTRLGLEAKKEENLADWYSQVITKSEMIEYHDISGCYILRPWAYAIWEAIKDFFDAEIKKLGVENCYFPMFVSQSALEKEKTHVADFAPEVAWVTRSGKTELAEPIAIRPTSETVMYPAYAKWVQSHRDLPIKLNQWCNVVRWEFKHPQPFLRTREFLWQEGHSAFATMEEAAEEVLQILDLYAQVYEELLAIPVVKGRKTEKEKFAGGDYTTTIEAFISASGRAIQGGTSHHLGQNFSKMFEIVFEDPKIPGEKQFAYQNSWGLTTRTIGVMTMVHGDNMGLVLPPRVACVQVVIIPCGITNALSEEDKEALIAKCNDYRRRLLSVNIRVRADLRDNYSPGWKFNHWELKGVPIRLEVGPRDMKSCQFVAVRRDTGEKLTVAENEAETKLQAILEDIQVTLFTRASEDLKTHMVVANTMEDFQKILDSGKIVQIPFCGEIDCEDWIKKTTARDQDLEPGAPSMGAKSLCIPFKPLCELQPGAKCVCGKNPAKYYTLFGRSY

The assay has as its target PRS (prolyl-tRNA synthetase) protein, PRS portion of EPRS (Homo sapiens (Human), UniProt P07814). Description: PRS enzyme activity inhibition experiment ([3H]proline, liquid scintillation). It is filed as biochemical. The settings on record: purified PRS protein, 37° C. for 5 to 10 minutes. The method, then:
In order to confirm the biological activities of the compounds prepared in Examples, % inhibition or IC50 values of PRS enzyme ([…]) activities were calculated.
Specifically, the portion corresponding to PRS in cDNA of EPRS was subcloned, and the obtained high-purity PRS protein was purified and used in the experiment. The compounds (1 μM) prepared in Examples were added into the reaction buffer (20 mM KPO4 (pH 7.4), 6 mM MgAc, 5 mM ATP, […] tRNA, 0.5 mM DTT, […][^3H]proline (1 mCi/mL)) and allowed to react at 37° C. for 5 to 10 minutes. The reaction was terminated with 3M paper that was in advance dried by addition of 5% TCA. The radioactivity was measured using a liquid scintillation counter.
% Inhibition and IC50 values of the respective compounds were calculated and analyzed using Microsoft Excel or Sigma Plot 8.0. In Tables 1 to 3, the results are divided into A, B and C according to the range of IC50. The case where the derived IC50 is 100 nM or less is represented by “A”, the case where the IC50 is 100 to 500 nM is represented by “B”, and the case where the IC50 is 500 nM or higher is represented by “C”.
`O[C@H]1CCCN[C@@H]1CCCn1cnc2cncc(Br)c21` [Example 128, (2R,3S)-2-(3-(7-bromo-1H-imidazo[4,5-c]pyridin-1-yl)propyl)piperidin-3-ol]: the IC50 (as a rule, the midpoint of a concentration-inhibition curve) was at least 500 nM. In the case of `O[C@H]1CCCN[C@@H]1CCCn1cnc2c(N3CCCC3)ncnc21` [Example 142, (2R,3S)-2-(3-(6-(pyrrolidin-1-yl)-9H-purin-9-yl)propyl)piperidin-3-ol], the IC50 was at least 500 nM. Under `O[C@H]1CCCN[C@@H]1CCCn1cnc2cc(C(F)(F)F)cc(-c3cccc(F)c3)c21` [Example 84, (2R,3S)-2-(3-(7-(3-fluorophenyl)-5-(trifluoromethyl)-1H-benzo[d]imidazol-1-yl)propyl)piperidin-3-ol] stands at least 500 nM; under `Cc1cc(Cl)cc2c1ncn2C/C=C/[C@H]1NCCC[C@@H]1O` [Example 180, (2R,3S)-2-((E)-3-(6-chloro-4-methyl-1H-benzo[d]imidazol-1-yl)prop-1-en-1-yl)piperidin-3-ol], 100 to 500 nM; under `O[C@H]1CCCN[C@@H]1CCCn1cnc2ccc(Cl)c(Cl)c21` [Example 56, (2R,3S)-2-(3-(6,7-dichloro-1H-benzo[d]imidazol-1-yl)propyl)piperidin-3-ol], 100 to 500 nM. `Cn1c(=O)c2c(ncn2CCC[C@H]2NCCC[C@@H]2O)n(C)c1=O` [Example 162, 7-(3-((2R,3S)-3-hydroxypiperidin-2-yl)propyl)-1,3-dimethyl-1H-purine-2,6(3H,7H)-dione] yielded an IC50 of at least 500 nM. To `O[C@H]1CCCN[C@@H]1/C=C/Cn1ccc2ccc(Cl)cc21` [Example 197, (2R,3S)-2-((E)-3-(6-chloro-1H-indol-1-yl)prop-1-en-1-yl)piperidin-3-ol] belongs at least 500 nM. To `COC(=O)c1cn(C/C=C/[C@H]2NCCC[C@@H]2O)c2c(Br)cccc12` [Example 202, methyl 7-bromo-1-((E)-3-((2R,3S)-3-hydroxypiperidin-2-yl)allyl)-1H-indole-3-carboxylate] belongs 100 to 500 nM; to `CCOC(=O)c1occc1-c1cc(Cl)cc2ncn(CCC[C@H]3NCCC[C@@H]3O)c12` [Example 110, ethyl 3-(5-chloro-1-(3-((2R,3S)-3-hydroxypiperidin-2-yl)propyl)-1H-benzo[d]imidazol-7-yl)furan-2-carboxylate], at least 500 nM; to `O[C@H]1CCCN[C@@H]1CCCn1cnc2ccc(C(F)(F)F)c(Cl)c21` [Example 67, (2R,3S)-2-(3-(7-chloro-6-(trifluoromethyl)-1H-benzo[d]imidazol-1-yl)propyl)piperidin-3-ol], at most 100 nM.

For `O[C@H]1CCCN[C@@H]1CCCn1cnc2cc(F)c(Cl)cc21` [Example 32, (2R,3S)-2-(3-(6-chloro-5-fluoro-1H-benzo[d]imidazol-1-yl)propyl)piperidin-3-ol], the IC50 was in the range of 100 to 500 nM. Under `O[C@H]1CCCN[C@@H]1CCCn1cnc2cccc(N3CCCC3)c21` [Example 98, (2R,3S)-2-(3-(7-(pyrrolidin-1-yl)-1H-benzo[d]imidazol-1-yl)propyl)piperidin-3-ol] stands 100 to 500 nM.

In turn, `C/C(=C\[C@H]1NCCC[C@@H]1O)Cn1cnc2c(C)c(Cl)ccc21` [Example 221, (2R,3S)-2-((E)-3-(5-chloro-4-methyl-1H-benzo[d]imidazol-1-yl)-2-methylprop-1-en-1-yl)piperidin-3-ol] displayed an IC50 of at least 500 nM. Under `O[C@H]1CCCN[C@@H]1CCCn1cnc2cc(Cl)cc(Br)c21` [Example 69, (2R,3S)-2-(3-(7-bromo-5-chloro-1H-benzo[d]imidazol-1-yl)propyl)piperidin-3-ol] stands at most 100 nM; under `COC(=O)c1cn(C/C=C/[C@H]2NCCC[C@@H]2O)c2cc(Cl)ccc12` [Example 211, methyl 6-chloro-1-((E)-3-((2R,3S)-3-hydroxypiperidin-2-yl)allyl)-1H-indole-3-carboxylate], at least 500 nM; under `O[C@H]1CCCN[C@@H]1CCCn1cnc2ccc(Br)c(F)c21` [Example 48, (2R,3S)-2-(3-(6-bromo-7-fluoro-1H-benzo[d]imidazol-1-yl)propyl)piperidin-3-ol], 100 to 500 nM. For the compound `Cc1c(F)ccc2ncn(CCC[C@H]3NCCC[C@@H]3O)c12` [Example 65, (2R,3S)-2-(3-(6-fluoro-7-methyl-1H-benzo[d]imidazol-1-yl)propyl)piperidin-3-ol], the IC50 lay in the range of 100 to 500 nM. To `O=C(O)c1cn(C/C=C/[C@H]2NCCC[C@@H]2O)c2ccccc12` [Example 209, 1-((E)-3-((2R,3S)-3-hydroxypiperidin-2-yl)allyl)-1H-indole-3-carboxylic acid] belongs at least 500 nM; to `Cc1c(Cl)cnc2c1ncn2CCC[C@H]1NCCC[C@@H]1O` [Example 131, (2R,3S)-2-(3-(6-chloro-7-methyl-3H-imidazo[4,5-b]pyridin-3-yl)propyl)piperidin-3-ol], 100 to 500 nM; to `Cc1ccc2c(ncn2CCC[C@H]2NCCC[C@@H]2O)n1` [Example 121, (2R,3S)-2-(3-(5-methyl-1H-imidazo[4,5-b]pyridin-1-yl)propyl)piperidin-3-ol], 100 to 500 nM.

Compound `CNC(=O)c1cn(C/C=C/[C@H]2NCCC[C@@H]2O)c2ccc(Br)cc12` [Example 215, 5-bromo-1-((E)-3-((2R,3S)-3-hydroxypiperidin-2-yl)allyl)-N-methyl-1H-indole-3-carboxamide] displayed an IC50 of at least 500 nM. Under `O[C@H]1CCCN[C@@H]1CCCn1cnc2ccc(Br)cc21` [Example 4, (2R,3S)-2-(3-(6-bromo-1H-benzo[d]imidazol-1-yl)propyl)piperidin-3-ol] stands 100 to 500 nM. On to `O[C@H]1CCCN[C@@H]1CCCn1cnc2ncc(Br)cc21` [Example 120, (2R,3S)-2-(3-(6-bromo-1H-imidazo[4,5-b]pyridin-1-yl)propyl)piperidin-3-ol], for which the IC50 was at least 500 nM. To `OCc1nc2cc(Cl)c(Cl)cc2n1CCC[C@H]1NCCC[C@@H]1O` [Example 147, (2R,3S)-2-(3-(5,6-dichloro-2-(hydroxymethyl)-1H-benzo[d]imidazol-1-yl)propyl)piperidin-3-ol] belongs at least 500 nM. Under `CCCCn1cc(-c2cc(Cl)cc3ncn(CCC[C@H]4NCCC[C@@H]4O)c23)cn1` [Example 113, (2R,3S)-2-(3-(7-(1-butyl-1H-pyrazol-4-yl)-5-chloro-1H-benzo[d]imidazol-1-yl)propyl)piperidin-3-ol] stands 100 to 500 nM; under `O=[N+]([O-])c1ccc2c(ncn2CCC[C@H]2NCCC[C@@H]2O)c1Cl` [Example 77, (2R,3S)-2-(3-(4-chloro-5-nitro-1H-benzo[d]imidazol-1-yl)propyl)piperidin-3-ol], 100 to 500 nM; under `O[C@H]1CCCN[C@@H]1CCCn1cnc2cc(-c3cn[nH]c3)ccc21` [Example 29, (2R,3S)-2-(3-(5-(1H-pyrazol-4-yl)-1H-benzo[d]imidazol-1-yl)propyl)piperidin-3-ol], at least 500 nM. In turn, `O[C@H]1CCCN[C@@H]1/C=C/CN1CCc2cc(Cl)ccc21` [Example 195, (2R,3S)-2-((E)-3-(5-chloroindolin-1-yl)prop-1-en-1-yl)piperidin-3-ol] gave an IC50 of at least 500 nM. To `O[C@H]1CCCN[C@@H]1CCCn1cnc2cc(Cl)c(Br)cc21` [Example 36, (2R,3S)-2-(3-(6-bromo-5-chloro-1H-benzo[d]imidazol-1-yl)propyl)piperidin-3-ol] belongs 100 to 500 nM; to `Cn1cncc1-c1cc(Cl)cc2ncn(CCC[C@H]3NCCC[C@@H]3O)c12` [Example 96, (2R,3S)-2-(3-(5-chloro-7-(1-methyl-1H-imidazol-5-yl)-1H-benzo[d]imidazol-1-yl)propyl)piperidin-3-ol], at least 500 nM. In turn, `O[C@H]1CCCN[C@@H]1CCCn1cnc2ccc(-c3ccccc3F)cc21` [Example 23, (2R,3S)-2-(3-(6-(2-fluorophenyl)-1H-benzo[d]imidazol-1-yl)propyl)piperidin-3-ol] came in with an IC50 of 100 to 500 nM. Under `O=C(O)c1cn(C/C=C/[C@H]2NCCC[C@@H]2O)c2c(Cl)cccc12` [Example 207, 7-chloro-1-((E)-3-((2R,3S)-3-hydroxypiperidin-2-yl)allyl)-1H-indole-3-carboxylic acid] stands at least 500 nM. Under `O[C@@H]1CCCN[C@H]1CCCn1cnc2c(Cl)c(Cl)ccc21` [Example 42, (2S,3R)-2-(3-(4,5-dichloro-1H-benzo[d]imidazol-1-yl)propyl)piperidin-3-ol] stands at least 500 nM; under `O[C@H]1CCCN[C@@H]1CCCn1cnc2cccc(Cl)c21` [Example 12, (2R,3S)-2-(3-(7-chloro-1H-benzo[d]imidazol-1-yl)propyl)piperidin-3-ol], 100 to 500 nM.

Compound `Cc1c(Br)cnc2c1ncn2C/C=C/[C@H]1NCCC[C@@H]1O` [Example 186, (2R,3S)-2-((E)-3-(6-bromo-7-methyl-3H-imidazo[4,5-b]pyridin-3-yl)prop-1-en-1-yl)piperidin-3-ol] had a concentration for half-maximal inhibition (IC50) of 100 to 500 nM. Under `O[C@H]1CCCN[C@@H]1CCCn1cnc2cc(Cl)cc(-c3csc(C4CCOCC4)n3)c21` [Example 103, (2R,3S)-2-(3-(5-chloro-7-(2-(tetrahydro-2H-pyran-4-yl)thiazol-4-yl)-1H-benzo[d]imidazol-1-yl)propyl)piperidin-3-ol] stands at least 500 nM; under `O[C@H]1CCCN[C@@H]1CCCn1cnc2c(N3CCCCC3)cccc21` [Example 19, (2R,3S)-2-(3-(4-(piperidin-1-yl)-1H-benzo[d]imidazol-1-yl)propyl)piperidin-3-ol], at least 500 nM.
